Laboratory results published in ChEMBL document CHEMBL1201862, “PubChem BioAssay data set” (2004).
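Briefly, cells in 96-well plates were exposed to five compound concentrations for 48 h, and endpoints were estimated by linear interpolation. GI50 is the concentration that inhibits growth by half.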 Calls of active or inactive are those of the source. No stated cut-off is given here; in the data, active = GI50 up to about 1.1 µM and inactive = higher.

Experiments:
Assay in all cases: NCI-60 cell line screen, 48 h
UO-31 = test system: UO-31
UACC-62 = test system: UACC-62
NCI-H522 = test system: NCI-H522
786-0 = test system: 786-0
NCI-H23 = test system: NCI-H23
LOX IMVI = test system: LOX IMVI
NCI-H460 = test system: NCI-H460
SW-620 = test system: SW-620
MDA-N = test system: MDA-N
U-251 = test system: U-251
ACHN = test system: ACHN
PC-3 = test system: PC-3
HOP-62 = test system: HOP-62
NCI/ADR-RES = test system: NCI/ADR-RES
OVCAR-3 = test system: OVCAR-3
COLO 205 = test system: COLO 205
Malme-3M = test system: Malme-3M
SK-MEL-5 = test system: SK-MEL-5
T47D = test system: T47D
DU-145 = test system: DU-145
MOLT-4 = test system: MOLT-4
A498 = test system: A498
K562 = test system: K562
SN12C = test system: SN12C
HL-60 = test system: HL-60
SK-OV-3 = test system: SK-OV-3
HCT-15 = test system: HCT-15
EKVX = test system: EKVX
HT-29 = test system: HT-29
Hs-578T = test system: Hs-578T
M14 = test system: M14
TK-10 = test system: TK-10
SF-539 = test system: SF-539
SNB-75 = test system: SNB-75
SNB-19 = test system: SNB-19
KM12 = test system: KM12
SF-268 = test system: SF-268
OVCAR-4 = test system: OVCAR-4
MDA-MB-231 = test system: MDA-MB-231
SK-MEL-28 = test system: SK-MEL-28
HOP-92 = test system: HOP-92
UACC-257 = test system: UACC-257
OVCAR-8 = test system: OVCAR-8
A549 = test system: A549
SK-MEL-2 = test system: SK-MEL-2
SR = test system: SR
HCT-116 = test system: HCT-116
MCF7 = test system: MCF7
BT-549 = test system: BT-549
OVCAR-5 = test system: OVCAR-5
MDA-MB-435 = test system: MDA-MB-435
HCC 2998 = test system: HCC 2998
IGROV-1 = test system: IGROV-1

c1ccc(N/N=N/c2ccc(-c3nc4ccccc4o3)cc2)nc1
GI50 (UO-31): 26.6 µM (inactive)
GI50 (UACC-62): 40.8 µM (inactive)
GI50 (NCI-H522): 43 µM (inactive)
GI50 (786-0): 91.8 µM (inactive)
GI50 (NCI-H23): 34 µM (inactive)
GI50 (LOX IMVI): 37.2 µM (inactive)
GI50 (NCI-H460): 30.5 µM (inactive)
GI50 (SW-620): 19.3 µM (inactive)
GI50 (MDA-N): 68.7 µM (inactive)
GI50 (U-251): 37.9 µM (inactive)
GI50 (ACHN): 52.2 µM (inactive)
GI50 (PC-3): 30.1 µM (inactive)
GI50 (HOP-62): 55.8 µM (inactive)
GI50 (NCI/ADR-RES): 35.4 µM (inactive)
GI50 (OVCAR-3): 27.3 µM (inactive)
GI50 (COLO 205): 20.6 µM (inactive)
GI50 (Malme-3M): > 100 µM (inactive)
GI50 (SK-MEL-5): 16.2 µM (inactive)
GI50 (T47D): 25.2 µM (inactive)
GI50 (DU-145): 43.6 µM (inactive)
GI50 (MOLT-4): 21.6 µM (inactive)
GI50 (A498): 46.3 µM (inactive)
GI50 (K562): 42.9 µM (inactive)
GI50 (SN12C): 56.6 µM (inactive)
GI50 (HL-60): 13.7 µM (inactive)
GI50 (SK-OV-3): 35.4 µM (inactive)
GI50 (HCT-15): 33.7 µM
GI50 (EKVX): 29.9 µM (inactive)
GI50 (HT-29): 42.8 µM (inactive)
GI50 (Hs-578T): 77.8 µM (inactive)
GI50 (M14): 60.7 µM (inactive)
GI50 (TK-10): 37.4 µM (inactive)
GI50 (SF-539): 55.3 µM (inactive)
GI50 (SNB-75): 20.4 µM (inactive)
GI50 (SNB-19): 75.2 µM (inactive)
GI50 (KM12): 37.8 µM (inactive)
GI50 (SF-268): 83.6 µM (inactive)
GI50 (OVCAR-4): 36 µM (inactive)
GI50 (MDA-MB-231): 36.6 µM (inactive)
GI50 (SK-MEL-28): 61.5 µM (inactive)
GI50 (HOP-92): 54.6 µM (inactive)
GI50 (UACC-257): 29.7 µM (inactive)
GI50 (OVCAR-8): 35.8 µM (inactive)
GI50 (A549): 46.7 µM (inactive)
GI50 (SK-MEL-2): 41.1 µM (inactive)
GI50 (SR): 38.5 µM (inactive)
GI50 (HCT-116): 39.8 µM (inactive)
GI50 (MCF7): 35.6 µM (inactive)
GI50 (BT-549): 28.8 µM (inactive)
GI50 (OVCAR-5): > 100 µM (inactive)
GI50 (MDA-MB-435): 31 µM (inactive)
GI50 (HCC 2998): 20 µM (inactive)
GI50 (IGROV-1): 28.6 µM (inactive)
